Measured values from US6750008B1, “Methods and compositions for inhibition of membrane fusion-associated events, including HIV transmission” (priority 1999, dated 2004).
“Also recorded” adds a separate entry of the source.

Experiments:
[1] = target: viral gp41 of HIV-1 (on virions and HIV-1 infected cells) (HIV-1) (UniProt P03377); assay: cell-based or functional assay
CEM cells = assay: Cell proliferation and toxicity assay; type: cell-based; details: 3 days, highest concentration tested 40 μg/ml
Method: Cell proliferation and toxicity assay: Approximately 3.8×10^5 CEM cells for each peptide concentration were incubated for 3 days at 37° C. in T25 flasks. Peptides tested were DP178 (SEQ ID:1) and DP-116 (SEQ ID:9), as described in FIG. 1. Peptides were synthesized as described, above, in Section 6.1. The concentrations of each peptide used were 0, 2.5, 10, and 40 μg/ml. Cell counts were taken at incubation times of 0, 24, 48, and 72 hours.

HIV-1LAI virus [2] = assay: Cell fusion assay (HIV-1 induced syncytia formation); type: cell-based
Source text: The results of several such experiments are presented herein.

HIV-1LAI virus [3] = details: FIG. 1 legend
Method: Synthetic peptides were incubated at 37° C. with either 247 TCID50 (for experiment depicted in FIG. 2), or 62 TCID50 (for experiment depicted in FIG. 3) units of HIV-1LAI virus or 25 TCID50 units of HIV-2NIHZ and CEM CD4^+ cells at peptide concentrations of 0, 0.04, 0.4, 4.0, and 40 μg/ml for 7 days. The resulting reverse transcriptase (RT) activity in counts per minute was determined using the assay described, below, in Section 6.1.5. See Reed, L. J. et al., 1938, Am. J. Hyg. 27: 493-497 for an explanation of TCID50 calculations.
The micro-reverse transcriptase (RT) assay was adapted from Goff et al. (Goff, S. et al., 1981, J. Virol. 38:239-248) and Willey et al. (Willey, R. et al., 1988, J. Virol. 62:139-147). Supernatants from virus/cell cultures are adjusted to 1% Triton-X100. A 10 μl sample of supernatant was added to 50 μl of RT cocktail in a 96-well U-bottom microtitre plate and the samples incubated at 37° C. for 90 min. The RT cocktail contained 75 mM KCl, 2 mM dithiothreitol, 5 mM MgCl2, 5 μg/ml poly A (Pharmacia, cat. No. 27-4110-01), 0.25 units/ml oligo dT (Pharmacia, cat. No. 27-7858-01), 0.05% NP40, 50 mM Tris-HCl, pH 7.8, 0.5 μM non-radioactive dTTP, and 10 μCi/ml ^32P-dTTP (Amersham, cat. No. PB.10167).
After the incubation period, 40 μl of reaction mixture was applied to a Schleicher and Schuell (S+S) NA45 membrane (or DE81 paper) saturated in 2×SSC buffer (0.3M NaCl and 0.003M sodium citrate) held in a S+S Minifold over one sheet of GB003 (S+S) filter paper, with partial vacuum applied. Each well of the minifold was washed four times with 200 μl 2×SSC, under full vacuum. The membrane was removed from the minifold and washed 2 more times in a pyrex dish with an excess of 2×SSC. Finally, the membrane was drained on absorbent paper, placed on Whatman #3 paper, covered with Saran wrap, and exposed to film overnight at −70° C.
DP178 (SEQ ID:1) was next tested for its ability to block CD-4^+ CEM cell infection by cell free HIV-1 virus. […]

[4] = target: T1, DP107-like domain of the RSV F1 protein (Human respiratory syncytial virus A, UniProt P03420); type: binding
T1 construct: made in house
Method: After incubation and washing, unbound Fab-d is removed from the plates and bound Fab-d is quantitated. A no-inhibitor control should also be conducted.
Such an assay takes advantages of accepted radioligand and receptor binding principles.
Specifically, the DNA sequence corresponding amino acid residues 142-302 of the RSV F1 protein was amplified by PCR and cloned into the Xmn I site of the expression vector pMal-p2 (New England Biolab) to give MF5.1. These amino acid residues correspond to the extracellular domain of the RSV F1 protein including its DP107 region but excluding the DP178 region.
Cell fusion assays were performed with each of the peptides as described in Section 17 above. The binding affinity of each peptide was also measured in a competitive binding assay described in Section 5.6.1 above, wherein the concentration of each peptide necessary to bind to the M5.1 fusion protein (i.e., the B50 value), and thereby disrupt binding of biotin labeled T112 (T888) to the fusion protein, was measured.

RSV = assay: Anti-RSV antiviral activity assay (syncytial formation, Hep-2 cells); type: cell-based, respiratory syncytial virus; details: purified peptides
Method: The assay utilized herein tested the ability of the peptides to disrupt the ability of HEp2 cells acutely infected with RSV (i.e., cells which are infected with a multiplicity of infection of greater than 2) to fuse and cause syncytial formation on a monolayer of uninfected an uninfected line of Hep-2 cells. The lower the observed level of fusion, the greater the antiviral activity of the peptide was determined to be. […]
After incubation, cells in control wells were checked for fusion centers, media was removed from the wells, followed by addition, to each well, of either Crystal Violet stain or XTT. […] The number of syncytia per well were then counted, using a dissecting microscope.
With respect to XTT (2,3-bis[2-Methoxy-4-nitro-5-sulfophenyl]-2H-tetrazolium-5-carboxyanilide inner salt), 50 μl XTT (1 mg/ml in RPMI buffered with 100 mM HEPES, pH 7.2-7.4, plus 5% DMSO) were added to each well. The OD450/690 was measured (after blanking against growth medium without cells or reagents, and against reagents) according to standard procedures. […]

T1 sequence (P03420 142-302): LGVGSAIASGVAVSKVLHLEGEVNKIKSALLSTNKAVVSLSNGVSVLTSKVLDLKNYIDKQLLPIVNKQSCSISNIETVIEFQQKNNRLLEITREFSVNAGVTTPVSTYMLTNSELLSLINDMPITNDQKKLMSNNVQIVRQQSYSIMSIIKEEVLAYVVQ

Molecule: M41-P (from UniProt P03377 540-686)
- Cell fusion (IC90) [1]: 83 nM
- HIV infectivity (IC90) [1]: 66 nM

Molecule: enfuvirtide
- cytotoxic effects on cells in culture (CEM cells): non-cytotoxic; also recorded: no cytotoxic effects

Molecule: M41 (maltose binding fusion protein of the gp41 ectodomain) (from UniProt P0AEX9 27-392; P03377 540-686)
- Cell fusion (IC90) [1]: > 50000 nM
- HIV infectivity (IC90) [1]: > 16000 nM

Molecule: H-YTNTIYTLLEESQNQQEKNEQELLELDKWASLWNWF-OH [DP-185]
- block of HIV-1-mediated syncytia formation (HIV-1LAI virus [2]): block HIV-1-mediated syncytia formation
- inhibitory activity on HIV-1-induced syncytia formation, lowest concentration tested (HIV-1LAI virus [2]; FIG. 4): ≤ 312.5 ng/mL

Molecule: M41-PΔ178 (from UniProt P03377 540-642)
- Cell fusion (IC90) [1]: > 50000 nM
- HIV infectivity (IC90) [1]: > 8000 nM

Molecule: Ac-LQARILAVERYLKDQQQ-NH2 [DP-116, reference compound]
- inhibition of HIV-1 cell free virus infection (HIV-1LAI virus [3]): negative for inhibition of HIV-1 infection

Molecule: Ac-VYPSDEFDASISQVNEKINQALAYIRKADELLHNV-NH2 [T786]
- binding affinity relative to T112 [4]: approximately ten-fold less
- Kd ([4]; B50, competition with biotin labeled T112 (T888), read-out: binding affinity): 19 nM

Molecule: DP-180: control peptide incorporating the amino acid residues of DP178 in a scrambled sequence (NNLLRAIEAQQHLLQLTVW; Core polypeptide) [reference compound]
- anti-fusogenic activity (HIV-1LAI virus [2]; at 40 μg/ml): no evidence of anti-fusogenic activity

Molecule: CC[C@H](C)[C@H](NC(=O)[C@H](Cc1ccccc1)NC(=O)[C@H](C)NC(=O)[C@H](CC(C)C)NC(=O)[C@H](CO)NC(=O)[C@H](CCC(N)=O)NC(=O)[C@H](CC(N)=O)NC(=O)[C@@H](NC(=O)[C@H](CCCCN)NC(=O)[C@H](CCC(=O)O)NC(=O)[C@H](CC(N)=O)NC(=O)[C@@H](NC(=O)[C@H](CCC(N)=O)NC(=O)[C@H](CO)NC(=O)[C@@H](NC(=O)[C@H](CO)NC(=O)[C@H](C)NC(=O)[C@H](CC(=O)O)NC(=O)[C@H](Cc1ccccc1)NC(=O)[C@H](CCC(=O)O)NC(=O)[C@H](CC(=O)O)NC(=O)[C@H](CO)NC(=O)[C@@H]1CCCN1C(=O)[C@H](Cc1ccccc1)NC(=O)[C@@H](NC(C)=O)C(C)C)[C@@H](C)CC)C(C)C)[C@@H](C)CC)C(=O)N[C@@H](CCCNC(=N)N)C(=O)N[C@@H](CCCCN)C(=O)N[C@@H](CO)C(=O)N[C@@H](CC(=O)O)C(=O)N[C@@H](CCC(=O)O)C(=O)N[C@@H](CC(C)C)C(=O)N[C@@H](CC(C)C)C(=O)N[C@@H](Cc1c[nH]cn1)C(=O)N[C@@H](CC(N)=O)C(=O)N[C@H](C(N)=O)C(C)C [T112]
- anti-RSV antiviral activity (RSV): substantial antiviral activity
